Results: the supplement of paper PMC10307832

Legend:
Experiment in all cases: relative viability (nuclei count vs DMSO), 5 days (fraction); higher = more cells survive
[1] = compound: C1=CC2=C(C=C(C(=C2N=C1)O)N=NC3=CC4=C(C=C3)C=C(C=C4)S(=O)(=O)O)S(=O)(=O)O + CC1(C)CCC(c2ccc(Cl)cc2)=C(CN2CCN(c3ccc(C(=O)NS(=O)(=O)c4ccc(N[C@H](CCN5CCOCC5)CSc5ccccc5)c(S(=O)(=O)C(F)(F)F)c4)cc3)CC2)C1 [Navitoclax] (partner 0.5 µM)
Outline: (§1)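 Relative viability was taken as the ratio of nuclei in treated wells to nuclei in vehicle wells. Lung cancer cell lines in 1536-well plates received compounds by pin tool one day after seeding, either one drug alone or a fixed anchor-drug dose plus five library-drug doses (not always all listed) in √10 steps. Nuclei were counted on 4× images after 5 days of treatment, and values are medians of duplicate plates.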

[2] = compound: C1=CC2=C(C=C(C(=C2N=C1)O)N=NC3=CC4=C(C=C3)C=C(C=C4)S(=O)(=O)O)S(=O)(=O)O + CS(=O)(=O)CCNCc1ccc(-c2ccc3ncnc(Nc4ccc(OCc5cccc(F)c5)c(Cl)c4)c3c2)o1 [Lapatinib] (partner 2 µM)
Outline: as §1

[3] = compound: O=C(NC1CCNCC1)c1n[nH]cc1NC(=O)c1c(Cl)cccc1Cl [AT-7519] + CCNC(=O)c1noc(-c2cc(C(C)C)c(O)cc2O)c1-c1ccc(CN2CCOCC2)cc1 [Luminespib] (partner 0.01 µM)
Outline: as §1

[4] = compound: O=C(NC1CCNCC1)c1n[nH]cc1NC(=O)c1c(Cl)cccc1Cl [AT-7519] + Cc1nc(Nc2ncc(C(=O)Nc3c(C)cccc3Cl)s2)cc(N2CCN(CCO)CC2)n1 [Dasatinib] (partner 0.075 µM)
Outline: as §1

| Cell Line | relative viability ([1]; first compound 0.08 µM) | relative viability ([1]; first compound 0.253 µM) | relative viability ([1]; first compound 0.8 µM) | relative viability ([1]; first compound 2.53 µM) | relative viability ([1]; first compound 8 µM) | relative viability ([2]; first compound 0.08 µM) | relative viability ([2]; first compound 0.253 µM) | relative viability ([2]; first compound 0.8 µM) | relative viability ([2]; first compound 2.53 µM) | relative viability ([2]; first compound 8 µM) | relative viability ([3]; first compound 0.01 µM) | relative viability ([3]; first compound 0.03162 µM) | relative viability ([3]; first compound 0.3162 µM) | relative viability ([3]; first compound 1 µM) | relative viability ([4]; first compound 0.01 µM) | relative viability ([4]; first compound 0.03162 µM) | relative viability ([4]; first compound 0.3162 µM) | relative viability ([4]; first compound 1 µM) |
| --- | --- | --- | --- | --- | --- | --- | --- | --- | --- | --- | --- | --- | --- | --- | --- | --- | --- | --- |
| HOP-62 | 1.1 | 1.03 | 1.12 | 1.07 | 1.1 | 1.32 | 0.925 | 0.972 | 1.05 | 0.993 | 1.02 | 0.916 | 0.993 | 0.859 | 0.653 | 0.699 | 0.731 | 0.626 |
| HARA | 1.15 | 1.15 | 1.18 | 1.14 | 1.11 | 0.836 | 0.611 | 0.681 | 0.869 | 0.778 | 0.71 | 0.533 | 0.412 | 0.398 | 0.265 | 0.28 | 0.314 | 0.211 |
| NCI-H838 | 1.24 | 1.23 | 1.17 | 1.09 | 1.2 | 1.29 | 0.926 | 0.934 | 0.926 | 1.06 | 0.239 | 0.292 | 0.276 | 0.13 | 0.298 | 0.285 | 0.259 | 0.249 |
| NCI-H1755 | 1.06 | 0.963 | 0.977 | 0.993 | 0.726 | 1.06 | 1.04 | 1.01 | 1.05 | 1.05 | 0.59 | 0.38 | 0.345 | 0.416 | 0.465 | 0.404 | 0.465 | 0.409 |
| NCI-H322M | 1.35 | 1.22 | 1.19 | 1.16 | 1.22 | 0.627 | 0.639 | 0.528 | 0.613 | 0.716 | 0.893 | 0.824 | 0.462 | 0.305 | 0.257 | 0.257 | 0.226 | 0.275 |
| NCI-H3122 | 0.98 | 1.04 | 0.996 | 1.03 | 1.04 | 0.99 | 0.982 | 1.04 | 0.947 | 1.01 | 0.104 | 0.0901 | 0.112 | 0.0695 | 0.917 | 0.805 | 0.809 | 0.354 |
| COR-L23 | 1 | 0.969 | 1.06 | 1.06 | 0.612 | 1.3 | 0.971 | 0.92 | 1 | 1.15 | 1 | 0.867 | 0.273 | 0.116 | 0.434 | 0.513 | 0.369 | 0.137 |
| NCI-H2087 | 0.926 | 0.878 | 0.868 | 0.889 | 0.948 | 1.16 | 0.981 | 1.02 | 1.03 | 1.02 | 0.178 | 0.16 | 0.141 | 0.116 | 1.14 | 0.938 | 0.732 | 0.108 |
| LC-2-ad | 0.516 | 0.517 | 0.507 | 0.402 | 0.521 | 0.982 | 0.937 | 0.922 | 0.954 | 0.589 | 1.03 | 0.892 | 1.17 | 0.501 | 0.555 | 0.61 | 0.328 | 0.332 |
